Several values for one entry are separate records, joined by “and”; a condition that tells them apart may be missing. Equal values may be shown once. Read-outs that look alike come from different tables or passages of the source.
Columns and labels:
[1] = molecular target: T1, (Rattus norvegicus, UniProt P15823); test: Off-target 203200; assay type: binding
T1 construct: purchased Eurofins Panlabs Discovery Services Taiwan, Ltd
Method: (§1) The potential off-target activity of 10 µM (OEG2)2-IP4 was assessed against a panel of 87 enzymes, receptors, or ion channels that are used in standard safety pharmacology screens.
(§2) 3.2. Off-target screening assay
(§3) The experiments were conducted by a contract research organization (Eurofins Panlabs Discovery Services Taiwan, Ltd.) and details on the respective assays can be retrieved via the catalog number provided in Supplementary Table 11 from the company’s webpage
(§4) (https://www.eurofinsdiscoveryservices.com/). […]
(§5) At sacrifice the left tibia of animals of the rat model with dietary adenine/high-phosphate-induced uremia and VC was collected, fixed with 70% v/v EtOH and embedded in methyl methacrylate. The trabecular bone compartment is known to be the most metabolic active i.e. actively re-structured bone compartment in CKD. Therefore, histomorphometric and micro-computed tomography (µCT) analysis of bone was performed on the trabecular compartment. Tibial sections were Goldner-stained for histomorphometric analysis of the proximal metaphysis using the AxioVision Release 4.5 software, as […]
(§6) described previously5. […]

Androgen (Testosterone) = test: Off-target 206000; assay type: binding, Human; conditions: 10 µM
Method: as §1, §2
(§7) The experiments were conducted by a contract research organization (Eurofins Panlabs Discovery
(§8) Services Taiwan, Ltd.) and details on the respective assays can be retrieved via the catalog number
(§9) provided in Supplementary Table 11 from the company’s webpage
as §4

PPARγ = molecular target: T2, PPARγ (Homo sapiens, UniProt P37231); test: Off-target 267500; assay type: binding
T2 construct: purchased Eurofins Panlabs Discovery Services Taiwan, Ltd
Method: as §1, §2, §3, §4, §5, §6

[2] = Plasma calcium after s.c. administration in healthy rats; assay type: in vivo, rat; conditions: 50 mg/kg s.c., acute or sub-chronic (7 days), at tmax of 30 min
[3] = Protein binding in human plasma (ultrafiltration); assay type: in vitro ADME
Method: For many drugs, the PK profile depends on the patient’s renal status. Therefore, (OEG2)2-IP4 PK profile was also determined in an adenine and high-phosphate-diet-induced rat model of uremia, in which the compound was administered after serum creatinine levels had increased by fourfold relative to baseline (Fig. 4g, h). […] Similar results were observed following s.c. administration (Supplementary Table 5).
as §2
The experiments were conducted by a contract research organization (Eurofins Panlabs Discovery Services Taiwan, Ltd.) and details on the respective assays can be retrieved via the catalog number provided in Supplementary Table 11 from the company’s webpage […]
Concentrations of unbound (OEG2)2-IP4 in ultrafiltrated fractions and total (OEG2)2-IP4 concentrations were measured using a calibration prepared in ultrafiltrated pooled plasma and non-ultrafiltrated pooled plasma, respectively and LC-MS/MS quantification as described in Methods 6.3.
At sacrifice the left tibia of animals of the rat model with dietary adenine/high-phosphate-induced uremia and VC was collected, fixed with 70% v/v EtOH and embedded in methyl methacrylate. […] The total bone area (as percentage of total tissue area), osteoid area (as percentage of total bone area), and mineralized bone area (as percentage of total tissue area) were calculated from the primary measurements. […]

Sodium Channel, Site 2 = test: Off-target 279510; assay type: binding, Rat; conditions: 10 µM
Method: as §1, §2, §7, §8, §9, §4

[4] = Urinary excretion after s.c. administration; assay type: in vivo, rat; conditions: 10 mg/kg s.c.; for Cumulative recovery from rat urine / dose excreted: healthy rats; for dose excreted: rat, urine, subcutaneous, 10 mg/kg, read-out: Cumulative recovery from rat urine
Method: To study urinary excretion, six animals were administered s.c. 10 mg/kg of (OEG2)2-IP4 and two animals served as blank urine controls. Animals were placed in separated metabolic cages ([…] S.p.A. Buguggiate, Italy) right after dosing, left there for the entire experiment, and urine was collected after 2, 5, 8, and 24 h. At the end of the experiment, cages were washed with 10 mL water and the washes were collected in separated tubes. Urine samples were centrifuged at 3000 × g and 4 °C for 10 min and stored at −20 °C until quantification of (OEG2)2-IP4 by LC-MS/MS. Recovery (%) was calculated using Eq. (2).2 Recovery%=OEG22IP4μg/doseμg×ratweightkg×100.

[5] = system: Calcium Channel L-Type, Phenylalkylamine; test: Off-target 215000; assay type: binding, Rat; conditions: 10 µM
Method: as §1, §2, §7, §8, §9, §4

[6] = system: TNFα release from THP-1-derived macrophages; test: TNFα release from macrophages, compound without CPP2; assay type: cell-based, human; conditions: without combined CPP2 treatment
Method: THP-1 cells were plated at a density of 200,000 cells/well in a 24-well plate, differentiated as stated above, and subsequently treated with or without CPP2 (50 μg Ca/mL) in complete medium with or without test compounds (3, 10, 30, 100 μM) for 24 h at 37 °C, 5% CO2.
Human TNF-α was assayed in cell culture supernatants using commercial multiplex immunoassay kits (U-Plex of TNF-α (custom-made multiplex plate) and Human TNF- Kit (K151QWD-1), both from MesoScaleDiscovery, Rockville, MD, USA), and corrected for total protein content using the Micro BCA^TM Protein Assay Kit. […]
Data are expressed as
mean ± s.d. (n = 3 independent experiments).

T1 sequence (P15823 whole entry): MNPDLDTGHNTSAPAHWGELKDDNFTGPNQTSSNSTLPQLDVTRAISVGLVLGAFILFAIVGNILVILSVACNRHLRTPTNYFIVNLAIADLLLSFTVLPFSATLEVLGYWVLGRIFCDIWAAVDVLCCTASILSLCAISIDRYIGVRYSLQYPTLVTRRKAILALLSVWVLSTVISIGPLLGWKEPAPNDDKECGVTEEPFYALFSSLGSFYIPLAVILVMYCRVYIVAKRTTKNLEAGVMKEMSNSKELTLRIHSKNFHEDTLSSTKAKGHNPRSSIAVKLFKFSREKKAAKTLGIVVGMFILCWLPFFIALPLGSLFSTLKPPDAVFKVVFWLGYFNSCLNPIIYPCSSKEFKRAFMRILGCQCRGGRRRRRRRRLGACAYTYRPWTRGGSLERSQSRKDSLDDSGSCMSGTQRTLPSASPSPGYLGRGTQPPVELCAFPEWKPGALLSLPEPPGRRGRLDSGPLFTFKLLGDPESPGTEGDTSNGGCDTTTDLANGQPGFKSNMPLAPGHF
T2 sequence (P37231 whole entry): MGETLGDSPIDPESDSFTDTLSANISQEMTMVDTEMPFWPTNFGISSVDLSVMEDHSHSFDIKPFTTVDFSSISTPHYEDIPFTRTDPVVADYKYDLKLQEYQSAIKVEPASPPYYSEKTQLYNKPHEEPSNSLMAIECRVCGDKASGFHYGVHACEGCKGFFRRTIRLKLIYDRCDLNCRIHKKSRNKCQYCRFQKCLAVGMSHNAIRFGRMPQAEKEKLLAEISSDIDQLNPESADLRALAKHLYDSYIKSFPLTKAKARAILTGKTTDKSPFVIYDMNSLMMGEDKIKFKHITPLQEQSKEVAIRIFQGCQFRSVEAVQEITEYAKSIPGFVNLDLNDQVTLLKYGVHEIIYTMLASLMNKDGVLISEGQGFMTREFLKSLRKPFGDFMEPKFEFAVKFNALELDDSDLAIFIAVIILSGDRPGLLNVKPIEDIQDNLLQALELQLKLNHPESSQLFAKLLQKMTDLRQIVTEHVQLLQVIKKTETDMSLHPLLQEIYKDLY

SMILES: COCCOCCO[C@@H]1[C@@H](OP(=O)(O)O)[C@H](OCCOCCOC)[C@@H](OP(=O)(O)O)[C@@H](OP(=O)(O)O)[C@H]1OP(=O)(O)O [(OEG2)2-IP4, 4,6-Di-O-(methoxy-diethyleneglycol)-myo-inositol-1,2,3,5-tetrakis(phosphate)]
- inhibition at 10 µM [1]: 5%
- % Inhibition (Androgen (Testosterone)): 12%
- inhibition at 10 µM (PPARγ): 2%
- lowering of serum calcium [2]: No significant lowering of serum calcium
- protein-bound fraction in healthy human plasma ([3]; total measured concentration 2.8 µg/mL (4 µM)): 58%
- protein-bound fraction in healthy human plasma ([3]; total measured concentration 27.5 µg/mL (39.5 µM)): 42%
- % Inhibition (Sodium Channel, Site 2): -1%
- intact dose recovered in the urine of healthy rats [4]: Forty percent
- Cumulative recovery from rat urine ([4]; 2 h, individual rats Fig. 4j): 21.7% and 21.3% and 24.6% and 20.5%
- Cumulative recovery from rat urine ([4]; 8 h): 49% and 34.7% and 40.7% and 37.3% and 32.9%
- Cumulative recovery from rat urine ([4]; 24 h): 52.9% and 39.5% and 42.5% and 38.2% and 34.7%
- dose excreted ([4]; 2 h, individual rats Fig. 4j): 26.7%
- dose excreted ([4]; 8 h): 29.8%
- dose excreted ([4]; 24 h): 34.4%
- % Inhibition [5]: -4%
- increase in TNFα levels in supernatants [6]: not observed

From publication PMC7002685, “Inhibition of vascular calcification by inositol phosphates derivatized with ethylene glycol oligomers” (Nature Communications, 2020)
